# The source made the active and inactive calls.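 Rule for the calls: active = fluorescence span above 25 thousand equivalent fluorochrome units, or a 33 microM versus DMSO difference score above 25; inactive = the rest.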
# System: S. cerevisiae s288c autofluorescence, flow cytometry 520 nm, 3 h
# Assay: yeast autofluorescence interference at GFP wavelength, dose response, artefact control for yeast TOR pathway modulator project, flow cytometry, strain s288c, KU SAR set 2, multiplex (AID 504463)
# Conditions: at 33.3 µM; stronger effect = higher value
row,fluorescence change (kMESF span),SMILES
1,0.13 (inactive),COc1cccc(-c2cc(Nc3cc(C)[nH]n3)nc(NCc3ccccc3)n2)c1
2,0.07 (inactive),CNc1nc(N)c([N+](=O)[O-])c(Nc2ccccc2F)n1
3,0.07 (inactive),CNc1nc(N)c(C(=O)c2ccc(C)c(C)c2)c(Nc2cccc(Cl)c2)n1
4,0.06 (inactive),Cc1cc(Nc2cc(-c3ccccc3)nc(NCc3ccccc3)n2)n[nH]1
5,0.07 (inactive),CNc1nc(N)c([N+](=O)[O-])c(Nc2cccc(Br)c2)n1
6,0.06 (inactive),CNc1nc(N)cc(Nc2cccc(Cl)c2)n1
7,0.14 (inactive),CNc1nc(NC2CCCCC2)c([N+](=O)[O-])c(N2CCOCC2)n1
8,0 (inactive),O=[N+]([O-])c1c(NC2CCCCC2)nc(NCc2ccccc2)nc1N1CCOCC1
9,0.14 (inactive),CNc1nc(N)c([N+](=O)[O-])c(Nc2cccc(OC)c2)n1
10,0.06 (inactive),COc1ccccc1-c1cc(Nc2cc(C)[nH]n2)nc(NCc2ccccc2)n1
11,0 (inactive),CNc1nc(N)cc(Nc2ccccc2F)n1
12,0.07 (inactive),Cc1cc(Nc2cc(Nc3ccccc3)nc(NCc3ccccc3)n2)n[nH]1
13,0.06 (inactive),COC(=O)c1cccc(-c2cc(Nc3cc(C)[nH]n3)nc(NCc3ccccc3)n2)c1
14,0.49 (inactive),CCNc1nc(N)c([N+](=O)[O-])c(Nc2cccc(Cl)c2)n1
15,0.07 (inactive),CNc1nc(NC)c([N+](=O)[O-])c(Nc2cccc(Cl)c2)n1
16,0 (inactive),CCNc1nc(NC2CCCCC2)c([N+](=O)[O-])c(N2CCOCC2)n1
17,0.06 (inactive),CNc1nc(N)cc(Oc2cccc(Cl)c2)n1
18,0.13 (inactive),CCOC(=O)c1c(N)nc(NC)nc1Nc1cccc(F)c1
19,0.07 (inactive),CNc1nc(N)c([N+](=O)[O-])c(Nc2ccccc2Br)n1
20,0.07 (inactive),CNc1nc(N)c([N+](=O)[O-])c(Nc2cccc(Oc3ccccc3)c2)n1

# From PubChem BioAssay AID504463 (NMMLSC, 2011)
